Measurements taken from patent US4536518A, “Antidepressant derivatives of cis-4-phenyl-1,2,3,4-tetrahydro-1-naphthalenamine” (priority 1979, dated 1985).
Counter-ions that a name gives are not always drawn. Like-named read-outs stand apart in the source and are kept apart here.

Columns and labels:
[1] = system: Synaptosomal Uptake of Dopamine (DA), rat corpus striatum; assay: Blockade of synaptosomal uptake of dopamine (DA) in vitro; format: biochemical, rat (Sprague-Dawley CD)
Description: (§1) Sprague-Dawley CD male rats weighing 180-220 g. (Charles River Laboratories, Inc.; Wilmington, Mass.) were used in this procedure. A crude synaptosomal fraction of rat corpus striatum (for 5HT and DA uptake) or hypothalmus (for NE uptake) tissue was prepared by homogenizing tissue (25 ml./g. wet) in ice-cold 0.32M sucrose containing 1 mg./ml. glucose, 0.0001M EDTA and tris(hydroxymethyl)aminomethane to pH 7.4. The homogenate was centrifuged at 1000 × g for 10 min. at 0°-4° C., the pellet discarded and the supernatant centrifuged at 17,000 × g for 20 min. at 0°-4° C. The resulting pellet was resuspended in the ice-cold 0.32M sucrose pH 7.4 solution at 10 ml./g. original tissue (wet) for corpus striatum and 5 ml./g. original tissue (wet) for hypothalmus. […] After incubation, the mixtures were filtered through 0.45 micron Millipore filters and the filters washed with the incubation buffer. […] Uptake was calculated as picomoles 5HT, DA or NE per mg. protein (protein was determined by measurement with Folin phenol reagent).

[2] = system: 5-hydroxytryptophan-induced tremors in mice; assay: Potentiation of 5-hydroxytryptophan-induced behavioral symptoms (tremors) in vivo; parameters: species or system mouse (Swiss-Webster CD); settings: Mus musculus
Description: The mice were rated for the presence of this symptom by a "blinded observer" at 10-20 min. after 5HTP treatment.

[3] = system: Behavioral Despair in mice; assay: Reduction of behavioral despair in vivo (modified Porsolt method); parameters: species or system mouse (Swiss-Webster CD); settings: for ED50: Mus musculus, sc, mice, subcutaneous
Description: A modification of the procedure described by Porsolt et al., Arch. Int. […] (Charles River Laboratories, Inc.; Wilmington, Mass.) were housed under standard laboratory conditions for at least one week prior to experimentation. Groups of 10 mice were then injected subcutaneously with either a given dosage of the named test compound or vehicle (5% Emulphor: 5% ethanol: 90% normal saline). One hour later the mice were placed individually in 1 liter beakers containing 7 cm. of 25° C. water. Beginning at 2 min. after immersion, each mouse was observed every 30 sec. for the presence of immobility, characterized as floating motionless in the water. A total of ten observations were made, each being scored as "0=animal moving, swimming, attempting to escape" or "1=animal immobile". The number of positive observations for each mouse was then totaled and a mean immobility score calculated for the group of ten.

[4] = system: Synaptosomal Uptake of Serotonin (5HT), rat corpus striatum; assay: Blockade of synaptosomal uptake of serotonin (5HT) in vitro; format: biochemical, rat (Sprague-Dawley CD); settings: 5HT uptake, Examples 26-49
Description: as §1

[5] = system: Synaptosomal Uptake of Norepinephrine (NE), rat hypothalmus; assay: Blockade of synaptosomal uptake of norepinephrine (NE) in vitro; format: biochemical, rat (Sprague-Dawley CD)
Description: as §1

uptake of serotonin = settings: background; cited from earlier work
[6] = system: synaptosomal norepinephrine uptake; settings: prior art; cited from earlier work
[7] = po, read-out: ED50 (tremors), no observed tremors
[8] = read-out: MPE50, footnoted no observed effect on immobility
[9] = po, 1 h, read-out: ED50 (tremors)
[10] = Examples 71-77, read-out: MPE50
[11] = mice, oral, read-out: ED50 (tremors), no observed tremors
[12] = 1 h, mice, oral, 100 mg./kg. i.p. 5HTP one hour later, read-out: ED50 (tremors)

SMILES	IC50 ([1]; Examples 26-49) [nM]	IC50 [4] [nM]	IC50 ([5]; Examples 26-49) [nM]	also measured
CN[C@H]1CC[C@@H](c2ccccc2)c2ccccc21 (relative stereo) [Comparative Example, Cis(1S) (1R)N--methyl-4-phenyl-1,2,3,4-tetrahydro-1-naphthalenamin hydrochloride, reference compound]	5100	3500	1900	ED50 [2, 7]: > 32 mg/kg; ED50 [3, 8]: > 32 mg/kg
CN[C@H]1CC[C@@H](c2ccc(Cl)c(Cl)c2)c2ccccc21 (relative stereo) [Example 1, Cis-(1S)(1R)-N-methyl-4-(3,4-dichlorophenyl)-1,2,3,4-tetrahydro-1-naphthalenamine Hvdrochloride]	–	–	–	ED50 [2, 9]: 3.2 to 5.6 mg/kg; ED50 [3, 10]: 4.5 mg/kg
CN[C@@H]1CC[C@H](c2ccc(Cl)cc2)c2ccccc21.Cl (relative stereo) [Example 4, Cis-N-methyl-4-(4-chlorophenyl)-1,2,3,4-tetrahydro-1-naphthalenamine Hydrochloride]	–	–	–	ED50 [2, 9]: 10 to 32 mg/kg
CN[C@@H]1CC[C@H](c2ccc(Cl)cc2)c2ccccc21.Cl (relative stereo) [Example 5, Cis-N-methyl-4-(4-chlorophenyl)-1,2,3,4-tetrahydro-1-naphthalenamine Hydrochloride]	–	–	–	ED50 [2, 11]: > 10 mg/kg; IC50 ([5]; Examples 26-49, Hydrochloride): 5000 nM
CN[C@@H]1CC[C@H](c2ccc(Cl)cc2)c2ccccc21 (relative stereo) [Example 6, Cis-N-methyl-4-(4-chlorophenyl)-1,2,3,4-tetrahydro-1-naphthalenamine Hydrochloride]	–	–	–	IC50 ([1]; Examples 26-49, Hydrochloride): 1500 nM; IC50 ([5]; Examples 26-49, Hydrochloride): 1200 nM
CN[C@H]1CC[C@@H](c2ccc(F)cc2)c2ccccc21 (relative stereo) [Example 7, Cis-(1S)(1R)-N-methyl-4-(4-fluorophenyl)-1,2,3,4-tetrahydro-1-naphthalenamine Hydrochloride]	4700	–	2300	ED50 [2, 7]: > 32 mg/kg; ED50 [3, 10]: 138 mg/kg
CN[C@H]1CC[C@@H](c2ccc(C(F)(F)F)cc2)c2ccccc21 (relative stereo) [Example 8]	7800	820	9800	ED50 [2, 12]: 10 to 32 mg/kg
CN[C@@H]1CC[C@H](c2cccc(C(F)(F)F)c2)c2ccccc21 (relative stereo) [Example 11, Cis-N-methyl-4-(3-trifluoromethyl-phenyl)-1,2,3,4-tetrahydro-1-naphthalenamine]	2500	250	2500	ED50 [2, 9]: 10 to 32 mg/kg; % MPE ([3]; 32.0 mg./kg. subcutaneous): 45%; % MPE ([3]; 56.0 mg./kg. subcutaneous, apparent overdosage): 10%; ED50 [3, 10]: 42 mg/kg
CN[C@@H]1CC[C@H](c2ccc(Cl)c(C(F)(F)F)c2)c2ccccc21 (relative stereo) [Example 12, Cis-N-methyl-4-(3-trifluoromethyl-4-chlorophenyl)-1,2,3,4-tetrahydro-1-naphthalenamine]	1500	–	–	ED50 [2, 12]: 1 to 3.2 mg/kg
CN[C@H]1CC[C@@H](c2ccc(Cl)cc2)c2ccc(Cl)cc21 (relative stereo) [Example 15, Cis-(1S)(1R)-N-methyl-4-(4-chlorophenyl)-7-chloro-1,2,3,4-tetrahydro-1-naphthalenamine Hydrochloride]	1300	300	2200	–
CN[C@H]1CC[C@@H](c2ccc(Br)cc2)c2ccccc21 (relative stereo) [Example 16, Cis-(1S)(1R)-N-methyl-4-(4-bromophenyl)-1,2,3,4-tetrahydro-1-naphthalenamine Hydrochloride]	1600	190	1400	–
CN[C@H]1CC[C@@H](c2ccc(OC)cc2)c2ccccc21 (relative stereo) [Example 17, Cis-(1S)(1R)-N-methyl-4-(4-methoxyphenyl)-1,2,3,4-tetrahydro-1-naphthalenamine Hydrochloride]	4200	–	3000	–
CN[C@H]1CC[C@@H](c2ccccc2OC)c2ccccc21 (relative stereo) [Example 18]	11000	4200	2300	ED50 [2, 11]: > 32 mg/kg; ED50 [3, 10]: > 32 mg/kg
CN[C@H]1CC[C@@H](c2cccc(OC)c2)c2ccccc21 (relative stereo) [Example 19]	5000	7600	1400	–
CN[C@H]1CC[C@@H](c2ccc(Cl)cc2Cl)c2ccccc21 (relative stereo) [Example 20, Cis-(1S)(1R)-N-methyl-4-(2,4-dichlorophenyl)-1,2,3,4-tetrahydro-1-naphthalenamine Hydrochloride]	1700	–	310	–
CN[C@H]1CC[C@@H](c2ccc(Cl)cc2)c2ccc(OC)cc21 (relative stereo) [Example 21, Cis-(1S) (1R)-N-methyl-4-(4-chlorophenyl)-7-methoxy-1,2,3,4-tetrahydro-1-naphthalenamine Hydrochloride]	440	190	470	–
CN(C)[C@H]1CC[C@@H](c2cccc(C(F)(F)F)c2)c2ccccc21 (relative stereo) [Example 22, Cis-(1S)(1R)-N,N-dimethyl-4-(3-trifluoromethylphenyl)-1,2,3,4-tetrahydro-1-naphthalenamine Maleate]	7000	190	890	ED50 [2, 9]: 3.2 to 10 mg/kg; ED50 [3, 8]: > 56 mg/kg
CN(C)[C@H]1CC[C@@H](c2ccc(C(F)(F)F)cc2)c2ccccc21 (relative stereo) [Example 23]	12000	–	14000	ED50 [2, 9]: 32 to 56 mg/kg
CN(C)[C@@H]1CC[C@H](c2ccc(Cl)cc2)c2ccccc21 (relative stereo) [Example 24, Cis-N,N-dimethyl-4-(4-chlorophenyl)-1,2,3,4-tetrahydro-1-naphthalenamine]	5600	–	1200	–
CN[C@H]1CC[C@@H](c2ccc(Cl)c(Cl)c2)c2ccccc21.Cl [Example 2, Cis-(1S)-N-methyl-4-(3,4-dichlorophenyl)-1,2,3,4-tetrahydro-1-naphthalenamine Hydrochloride]	–	–	–	% MPE ([3]; 0.10 mg./kg. subcutaneous): 7.9%; % MPE ([3]; 0.32 mg./kg. subcutaneous): 24%; % MPE ([3]; 1.00 mg./kg. subcutaneous): 17%; % MPE ([3]; 3.20 mg./kg. subcutaneous): 41%; % MPE ([3]; 10.0 mg./kg. subcutaneous): 57%; % MPE ([3]; 17.8 mg./kg. subcutaneous): 57%; % MPE ([3]; 32.0 mg./kg. subcutaneous): 66%
CN[C@H]1CC[C@@H](c2ccc(C(F)(F)F)cc2)c2ccccc21 [Example 9]	6400	–	9400	ED50 [2, 12]: < 32 mg/kg
CN[C@@H]1CC[C@H](c2ccc(C(F)(F)F)cc2)c2ccccc21 [Example 10]	5600	2200	12000	ED50 [2, 11]: > 32 mg/kg
CN[C@H]1CC[C@@H](c2ccc(Cl)c(C(F)(F)F)c2)c2ccccc21 [Example 13]	6800	–	3600	ED50 [2, 9]: 3.2 to 10 mg/kg
CN[C@@H]1CC[C@H](c2ccc(Cl)c(C(F)(F)F)c2)c2ccccc21 [Example 14]	550	–	2400	ED50 [2, 11]: > 32 mg/kg
COCCCC/C(=N\OCCN)c1ccc(C(F)(F)F)cc1 [fluvoxamine]	–	–	–	serotonin uptake blockade compared to norepinephrine blockade (in words) (uptake of serotonin): selectively block the uptake of serotonin
CN[C@@H]1CC[C@@H](c2ccccc2)c2ccccc21 [trans-(1R)-N-methyl-4-phenyl-1,2,3,4-tetrahydro-1-naphthalenamine]	–	–	–	synaptosomal norepinephrine uptake blocking activity (in words) [6]: excellent
CN(C)C/C=C(/c1ccc(Br)cc1)c1cccnc1 [zimelidine]	–	–	–	serotonin uptake blockade compared to norepinephrine blockade (in words) (uptake of serotonin): selectively block the uptake of serotonin
